# Laboratory results: paper PMC5517430, “2,3,7,8-Tetrachlorodibenzo-p-dioxin (TCDD)-elicited effects on bile acid homeostasis: Alterations in biosynthesis, enterohepatic circulation, and microbial metabolism” (Scientific Reports, 2017)
# Values joined by “and” are separate entries in the source; they are usually repeats but may differ in a detail not shown here. Equal values may be shown once.
# Key:
# bile acids = experiment: HRAM-LC-MS analysis of bile acids in liver, serum and feces; type: in vivo, mouse; details: male mice
# Protocol: Serum (10 µL) was added to 10 µL of a 20 ng/µL stock solution of deuterated (d4) glycochenodeoxycholic acid (GCDCA, from Steraloids, Inc.) in methanol, and extracted with ice-cold methanol as previously described. Frozen liver samples (50 mg) or dried fecal pellets (50 mg) were combined with 10 µL of 20 ng/µL d4-GCDCA stock solution and 1.0 mL of ice-cold methanol, and homogenized with 0.5 mm zirconium oxide beads using an air-cooled Bullet Blender (NextAdvance). Extracts were dried under vacuum, reconstituted in 2.0 mL of 50% methanol, filtered through 0.2 µm nylon membranes (Pall Life Sciences), and stored at −80 °C.
# Bile acids were analyzed by high resolution/accurate mass (HRAM)-LC-MS using an Agilent 1260 capillary HPLC coupled to a Thermo Scientific LTQ-Orbitrap Velos mass spectrometer. Extracts (2 µL) were injected into water containing 0.1% formic acid, and loaded onto an inline peptide Opti-Trap (Optimize Technologies) for 3.0 min at 5 µL/min for desalting and concentration. Bile acids were then eluted by a 30 min water/acetonitrile gradient from 98% water containing 0.1% formic acid to 95% acetonitrile containing 0.1% formic acid (modified from ref. [73]) and separated by a ProntoSil C18AQ 200 µm × 50 mm, 3 u column (nanoLCMS Solutions) at a flow rate of 2 µL/min. The column eluent was introduced to the LTQ-Orbitrap Velos mass spectrometer by an Advance nano-ESI source (Michrom BioResources) at a spray voltage of −1.7 kV. High resolution (R = 100,000 at 400 m/z) negative ion mass spectra were collected over 300–900 m/z. The ion transfer tube of the mass spectrometer was maintained at 250 °C, and the S-lens was set to 50%. Appropriate sample dilution factors were determined empirically to ensure a linear range of detector response. Chromatographic peak alignment, feature detection, quantitation and bile acid identification were performed using MAVEN[75] and SECD-LIMSA[76] software. All bile acids were identified by comparison of retention time and accurate mass data against reference standards. Relative quantitation was performed against the deuterated GCDCA internal standard. TCDD-elicited changes in bile acid species are reported as fold changes relative to vehicle controls.
# male C57BL/6 mice = experiment: Whole gut transit time with carmine red dye; type: in vivo, mouse
# Protocol: At 27d after the initial dose (PND55), whole gut transit time (WGTT) was determined using carmine red dye, which cannot be intestinally absorbed. At time 0 (t0), mice were orally gavaged with 150 µL of carmine red solution (6% carmine red dye suspended in 0.5% methylcellulose). Fecal pellets were monitored continuously for the presence of carmine red. WGTT represents the time interval between t0 and the first observance of carmine red dye in the fecal pellets.
# bile acid mixture = experiment: Hydrophobicity index (HIx) of bile acid mixtures in liver, serum and feces; type: in vivo, mouse; details: male mice
# Excerpt: In general, bile acid toxicity increases with hydrophobicity, [39], which depends on ionization, hydroxylation, and conjugation (taurine, glycine, sulfate, glucoronate)[40]. The potential toxicity of a bile acid mixture can be estimated by calculating the hydrophilic-hydrophobic balance using the hydrophobicity index (HIx) of each bile acid species in the mixture, as described by Heuman[41]. […] Consequently, the shift towards increased hydrophobicity is primarily driven by a decrease in the relative abundance of T-α-MCA, a highly hydrophilic species.
# [1] = parameters: method as in PMID 6138222; details: mice; cited from earlier work
# AhR = experiment: Hepatic AhR ChIP-Seq (AhR genomic enrichment); type: in vivo, mouse
# Protocol: Putative dioxin response elements (pDREs) with matrix similarity scores (MSS) ≥ 0.856 were previously identified. ChIP-Seq was previously performed on liver samples from male C57BL/6 mice 2 h after a single bolus oral gavage of 30 µg/kg TCDD[33], [70]. Briefly, cross-linked DNA was immunoprecipitated with either rabbit IgG or anti-AhR (H-211, sc-5579; Santa Cruz, CA). Libraries were prepared using the MicroPlex kit (Diagenode), pooled, and sequenced at a depth of a ~30 M on an Illumina HiSeq 2500 at the MSU RTSF Genomics Core. Reads were mapped to the mouse reference genome (GRCm38 release 81) using Bowtie 2.0.0 and alignments converted to SAM format using SAMTools v0.1.2. Normalization and peak calling was performed using CisGenome[71], by comparing IgG control and AhR enriched samples (n = 5) using a bin size (−b) of 25 and boundary refinement resolution (−bw) of 1 with default parameters.
# [2] = liver, 10 µg/kg TCDD every 4 d for 28 d, relative to vehicle
# [3] = liver, 30 µg/kg TCDD every 4 d for 28 d, relative to vehicle
# [4] = liver, dose not stated, 3–30 µg/kg TCDD
# [5] = liver, dose-dependent, 3–30 µg/kg TCDD
# [6] = serum, 30 µg/kg TCDD every 4 d for 28 d, relative to vehicle
# [7] = male mouse liver, 2 h after single oral gavage of 30 µg/kg TCDD
structure (smiles),measurement,setting,value
"Clc1cc2c(cc1Cl)Oc1cc(Cl)c(Cl)cc1O2 [TCDD, 2,3,7,8-tetrachlorodibenzo-p-dioxin]","Deoxycholic acid disulfate DCA-di-SO4, Fold Change FECES","bile acids; feces, 30 µg/kg TCDD, relative to vehicle, n = 2 cages",4.9 fold
same,"Taurolithocholic acid TLCA, Fold Change FECES","bile acids; feces, 30 µg/kg TCDD, relative to vehicle, n = 2 cages, ∞ = detected in treated animals but not controls",undetectable in controls to detectable in treated mice
same,"Fecal cholic acid 7-sulfate (CA-7-SO4), fold decrease","bile acids; feces, 30 µg/kg TCDD",55.2 fold
same,"Fecal taurocholic acid 3-sulfate (TCA-3-SO4), fold decrease","bile acids; feces, 30 µg/kg TCDD",10.3 fold
same,"Fecal α-MCA, fold decrease","bile acids; feces, 30 µg/kg TCDD",10.3 fold
same,"Total fecal bile acids, fold decrease","bile acids; feces, 30 µg/kg TCDD",2.8 fold
same,"Taurolithocholic acid TLCA, Fold Change LIVER",bile acids; [2],72.1 fold
same,"Total Bile Acids, Fold Change LIVER",bile acids; [2],2.1 fold
same,"Cholic acid CA, Fold Change LIVER",bile acids; [3],4.7 fold
same,"Taurolithocholic acid TLCA, Fold Change LIVER",bile acids; [3],> 200 fold and 233.8 fold
same,"Total Bile Acids, Fold Change LIVER",bile acids; [3],4.6 fold
same,Effect on hepatic CDCA,"bile acids; liver, 3–30 µg/kg TCDD",no effect
same,Effect on hepatic α/β-MCA,"bile acids; liver, 3–30 µg/kg TCDD",no effect
same,"Hepatic glycocholic acid (GCA), fold increase",bile acids; [4],3.9 fold
same,"Hepatic tauro-α-muricholic acid (T-α-MCA), fold increase",bile acids; [4],3.7 fold
same,"Hepatic taurocholic acid (TCA), fold increase",bile acids; [4],9.7 fold
same,"Total hepatic conjugated primary bile acid levels, max fold increase",bile acids; [5],4.7 fold
same,"Total hepatic levels of conjugated secondary bile acids, max fold increase",bile acids; [5],77.7 fold
same,"Cholic acid CA, Fold Change SERUM",bile acids; [6],58.2 fold
same,"Deoxycholic acid DCA, Fold Change SERUM",bile acids; [6],79.7 fold
same,"Glycocholic acid GCA, Fold Change SERUM",bile acids; [6],134.4 fold
same,"Muricholic acid (α) α-MCA, Fold Change SERUM",bile acids; [6],97.0 fold
same,"Muricholic acid (β) β-MCA, Fold Change SERUM",bile acids; [6],52.8 fold
same,"Taurocholic acid TCA, Fold Change SERUM",bile acids; [6],298.9 fold
same,"Total Bile Acids, Fold Change SERUM",bile acids; [6],45.4 fold
same,Whole gut transit time,"male C57BL/6 mice; 30 µg/kg TCDD every 4 d, 27 d after initial dose, controls 2.5 h",4.1 h
same,Reduction in gut motility,male C57BL/6 mice; 30 µg/kg TCDD vs controls,1.6 fold
same,Shift of fecal bile acid mixture HIx,"bile acid mixture; feces, TCDD",moderate increase in hydrophobicity
same,Shift of hepatic bile acid mixture HIx,"bile acid mixture; liver, 3–30 µg/kg TCDD every 4 d for 28 d",toward greater hydrophobicity
same,Shift of serum bile acid mixture HIx,"bile acid mixture; serum, TCDD every 4 d for 28 d",more hydrophilic
same,Half-life,[1],190 to 288 h
same,Slc6a6 (TAUT) AhR Binding?,AhR; liver,YES
same,Slc10a1 (NTCP or LBAT) AhR Binding?,AhR; liver,YES
same,Slco2b1 (OATP2B1) AhR Binding?,AhR; liver,YES
same,Soat1 AhR Binding?,AhR; liver,YES
same,Soat2 AhR Binding?,AhR; liver,YES
same,Sqle AhR Binding?,AhR; liver,YES
same,Srebf2 AhR Binding?,AhR; liver,YES
same,Tm7sf2 AhR Binding?,AhR; liver,YES
same,"AhR binding within Cyp8b1, fold enrichment",AhR; [7],2.2 fold
same,"AhR genomic binding at Cyp7a1, fold enrichment",AhR; [7],2.3 fold
same,"AhR genomic binding at the Hmgcr loci, fold increase",AhR; [7],10.3 fold
